One test concerns TK-10 renal cancer. The test can be described thus: NCI 60-cell screen dose-response study, TK-10. It is filed as cell-based. How it is done:
(§1) TIR-199 activity in inhibiting cancer cell growth was tested in a National Cancer Institute (“NCI”) 60-cell screen in triplicate (see FIGS. 3-14).
(§2) The NCI 60-cell screens were initially tested with 10 μM dose of TIR-199. […] Due to the initial results being so promising, a full dose-response study was performed in triplicate with the NCI cell lines.

For the next test, the system named is BT-549 breast cancer. The test can be described thus: NCI 60-cell screen dose-response study, BT-549. Type of test: cell-based. How it is done: as §1, §2
The next test has as its system PC3 prostate cancer. The test can be described thus: NCI 60-cell screen dose-response study, PC3. Type of test: cell-based. How it is done:
as §1, §2

In a further test the test system is HCC-2998 colon cancer. The test can be described thus: NCI 60-cell screen dose-response study, HCC-2998. It is filed as cell-based. On the procedure: as §1, §2
Test [1] has as its system NCI-H226 lung cancer line. The test can be described thus: NCI 60-cell screen dose-response study, NCI-H226. Type of test: cell-based. How it is done:
as §1, §2

The subject of the next test is cancerous cell lines. The test can be described thus: Confirmatory in vitro cell-based screens. The following applies: confirmatory in-vitro experiments in various laboratories.
Another test concerns RXF 393 renal cancer. The test can be described thus: NCI 60-cell screen dose-response study, RXF 393. Type of test: cell-based. On the procedure: as §1, §2
For another test, the system named is 60 cancerous cell lines. The test can be described thus: NCI 60-cell screen. Type of test: cell-based. How it is done:
as §1, §2

For test [2], the system named is multiple myeloma cell lines. The test can be described thus: Studies with multiple myeloma cell lines. It is filed as cell-based.
Another test concerns OVCAR-5. The test can be described thus: NCI 60-cell screen dose-response study, OVCAR-5. As to conditions: Homo sapiens, dose-response study in triplicate, most sensitive cell line. It is filed as cell-based. On the procedure:
as §1, §2

By IC50 is commonly meant the point on the concentration scale where inhibition reaches its midpoint.

On to `CCCCCCCCCCCCNC(=O)N[C@H](C(=O)N[C@H]1/C=C/CCNC(=O)/C=C/[C@H](C)NC1=O)C(C)C` [TIR-199], for which the “sensitivity of cell line” value in the test on TK-10 renal cancer, in the test with BT-549 breast cancer, in the test on PC3 prostate cancer, in the test on HCC-2998 colon cancer and with RXF 393 renal cancer was “particularly sensitive” each time. Besides, the “potency against cell line” value in [1] was “Particular potency”. Further, in the test with cancerous cell lines, the “potency against cancerous cell lines” value is “low nanomolar potency”. The “growth suppression and/or apoptosis induction in dose response study” value with 60 cancerous cell lines (60 cancerous cell lines, varying log10 amounts (FIG. 3)) is listed as “suppressed the growth and/or induced apoptosis in every cancerous cell line”. In addition, the “suppression of cancer cell growth” value in the test with 60 cancerous cell lines (initial single dose, 10 μM) was “effectively suppressed cancer cell growth universally across the cell lines”. Further, the “effectiveness on kidney cancer activity” value with 60 cancerous cell lines (kidney (renal) cancer lines) was “surprisingly potent”. For the same compound, the “potency compared with bortezomib” value in test [2] is reported as “nearly as potent as the FDA approved proteasome inhibitor, bortezomib”. The compound further yielded a half-inhibitory concentration (IC50) with OVCAR-5 of 10 nM.
